Holding throughout (assay): in vitro antimicrobial susceptibility test (MIC, CLSI standard method)
One assay deals with E. coli Z302. The format is cell-based. The conditions noted are these: for The in vitro antimicrobial susceptibility test/MIC: strain Z302 (E. coli), CLA at fixed concentration 4 μg/ml in combinations. The method, then:
(§1) Three gram-negative bacteria in Table 3 were tested. The in vitro antimicrobial susceptibility result was obtained according to the standard method of Clinical and Laboratory Standards Institute (CLSI).
The resistance genes in E. coli Z302 were detected using the microarray in FIG. 1 according to the method in Example 1. […] Thus the kit for detection of resistance genes in gram-negative bacteria in the present invention can be used to specifically detect the resistance genes in the prevalent gram-negative bacteria E. coli.

Another assay relates to E. cloacae TR3104. The format is cell-based. The conditions noted are these: strain TR3104; for The in vitro antimicrobial susceptibility test/MIC: CLA at fixed concentration 4 μg/ml in combinations. The method, then:
as §1
The resistance genes in E. cloacae TR3104 were detected using the microarray in FIG. 1 according to the method in example 1. […] Thus the kit for detection of resistance genes in gram-negative bacteria in the present invention can be used to specifically detect the resistance genes in the prevalent gram-negative bacteria E. cloacae.

The test system of the next assay is K. pneumoniae BJ-7. Type of assay: cell-based, Klebsiella pneumoniae. The conditions noted are these: for The in vitro antimicrobial susceptibility test/MIC: strain BJ-7 (K. pneumoniae), CLA at fixed concentration 4 μg/ml in combinations. The method, then:
as §1

A further assay concerns K. pneumoniae BJ-35. Type of assay: cell-based, Klebsiella pneumoniae. The conditions noted are these: for The in vitro antimicrobial susceptibility test/MIC: strain BJ-35 (K. pneumoniae), CLA at fixed concentration 4 μg/ml in combinations. The method, then:
as §1

The next assay deals with K. pneumoniae E298. The format is cell-based, Klebsiella pneumoniae. The conditions noted are these: for The in vitro antimicrobial susceptibility test/MIC: strain E298 (K. pneumoniae), CLA at fixed concentration 4 μg/ml in combinations. The method, then:
as §1

Setting [1] is: strain Z302, shown by microarray-detected genes, consistent with MIC results.
The mark [2] stands for this setting: strain BJ-7, shown by microarray-detected genes, consistent with MIC results.
[3] abbreviates: strain BJ-35, shown by microarray-detected genes, consistent with MIC results.
[4] abbreviates: strain E298, shown by microarray-detected genes, consistent with MIC results.

Take `CC(C)(O/N=C(\C(=O)N[C@@H]1C(=O)N2C(C(=O)[O-])=C(C[n+]3ccccc3)CS[C@H]12)c1csc(N)n1)C(=O)O` [CAZ, ceftazidime]: the “The in vitro antimicrobial susceptibility test/MIC” value is “≧128 μg/ml” with E. coli Z302; 4 µg/mL in the assay on E. cloacae TR3104; 32 µg/mL in the assay with K. pneumoniae BJ-7; 4 µg/mL in the assay with K. pneumoniae BJ-35; “≧128 μg/ml” in the assay with K. pneumoniae E298.

Take `CO/N=C(\C(=O)N[C@@H]1C(=O)N2C(C(=O)O)=C(COC(C)=O)CS[C@H]12)c1csc(N)n1` [CTX, cefotaxime]: the “The in vitro antimicrobial susceptibility test/MIC” value with E. coli Z302 is “≧128 μg/ml”; in the assay on E. cloacae TR3104 it was 64 µg/mL; in the assay with K. pneumoniae BJ-7, 64 µg/mL; in the assay with K. pneumoniae BJ-35, 8 µg/mL; with K. pneumoniae E298, “≧128 μg/ml”.

`O=C(O)[C@H]1/C(=C/CO)O[C@@H]2CC(=O)N21` [clavulanate]: the “inhibition of the isolate's resistance by clavulanate” value with E. coli Z302 (setting [1]) is “not inhibited”; in the assay with K. pneumoniae BJ-7 (setting [2]), “inhibited”; with K. pneumoniae BJ-35 (setting [3]), “inhibited”; with K. pneumoniae E298 (setting [4]), “not inhibited”.

Turning to `C[C@@H](O)[C@H]1C(=O)N2C(C(=O)O)=C(SCCN=CN)C[C@H]12` [IMP, imipenem], the “The in vitro antimicrobial susceptibility test/MIC” value is 4 µg/mL in the assay on E. coli Z302; 4 µg/mL with E. cloacae TR3104; under 0.5 µg/mL in the assay with K. pneumoniae BJ-7; under 0.5 µg/mL with K. pneumoniae BJ-35; under 0.5 µg/mL in the assay with K. pneumoniae E298.

For `CO[C@@]1(NC(=O)Cc2cccs2)C(=O)N2C(C(=O)O)=C(COC(N)=O)CS[C@@H]21` [FOX, cefoxitin], the “The in vitro antimicrobial susceptibility test/MIC” value in the assay with E. coli Z302 is “≧128 μg/ml”; in the assay on E. cloacae TR3104, “≧256 μg/ml”; with K. pneumoniae BJ-7 it was 8 µg/mL; in the assay with K. pneumoniae BJ-35, 2 µg/mL; in the assay with K. pneumoniae E298 it was “≧128 μg/ml”. Further, the “resistance or susceptibility of the isolate” value in the assay on E. coli Z302 (setting [1]) is recorded as “resistant”; with E. cloacae TR3104 (shown by microarray-detected genes, consistent with MIC results) it was “resistant”; with K. pneumoniae BJ-7 (setting [2]), “susceptible”; with K. pneumoniae BJ-35 (setting [3]), “susceptible”; in the assay on K. pneumoniae E298 (setting [4]), “resistant”.

For the origin of these results see patent publication US8124382B2, “Methods, microarray, and kits for detection of drug resistance genes in gram-negative bacteria” (CapitalBio Corporation, priority 2006, dated 2012).
